Laboratory results: patent publication US20220227737A1, “NOVEL OXALYL PIPERAZINES ACTIVE AGAINST THE HEPATITIS B VIRUS (HBV)” (AiCuris GmbH & Co. KG, priority 2019, published 2022)

How the values were obtained:
HBV = HBV replication assay: HBV DNA from the supernatants of HepAD38 cells; format: cell-based; settings: Hepatitis B virus, 144 h, HBV DNA in supernatant at day 6, read-out: Cell Activity
Method: Determination of HBV DNA from the Supernatants of HepAD38 Cells
The anti-HBV activity was analysed in the stable transfected cell line HepAD38, which has been described to secrete high levels of HBV virion particles (Ladner et al., 1997). In brief, HepAD38 cells were cultured at 37° C. at 5% CO2 and 95% humidity in 200 μl maintenance medium, which was Dulbecco's modified Eagle's medium/Nutrient Mixture F-12 (Gibco, Karlsruhe), 10% fetal bovine serum (PAN Biotech Aidenbach) supplemented with 50 μg/ml penicillin/streptomycin (Gibco, Karlsruhe), 2 mM L-glutamine (PAN Biotech, Aidenbach), 400 μg/ml G418 (AppliChem, Darmstadt) and 0.3 μg/ml tetracycline. Cells were subcultured once a week in a 1:5 ratio, but were usually not passaged more than ten times. For the assay 60,000 cells were seeded in maintenance medium without any tetracycline into each well of a 96-well plate and treated with serial half-log dilutions of test compound. To minimize edge effects the outer 36 wells of the plate were not used but were filled with assay medium. On each assay plate six wells for the virus control (untreated HepAD38 cells) and six wells for the cell control (HepAD38 cells treated with 0.3 μg/ml tetracycline) were allocated, respectively. In addition, one plate set with reference inhibitors like BAY 41-4109, entecavir, and lamivudine instead of screening compounds were prepared in each experiment. In general, experiments were performed thrice in triplicates. At day 6 HBV DNA from 100 μl filtrated cell culture supernatant (AcroPrep Advance 96 Filter Plate, […] Supor membran, PALL GmbH, Dreieich) was automatically purified on the MagNa Pure LC instrument using the MagNA Pure 96 DNA and Viral NA Small Volume Kit (Roche Diagnostics, Mannheim) according to the instructions of the manufacturer. EC50 values were calculated from relative copy numbers of HBV DNA In brief, 5 μl of the 100 μl eluate containing HBV DNA were subjected to PCR LC480 Probes Master Kit (Roche) together with 1 μM antisense primer […], 0.5 μM sense primer […], 0.3 μM hybprobes […]-FL and LC640-[…]-PH (TIBMolBiol, Berlin) to a final volume of […]. The PCR was performed on the Light Cycler 480 real time system (Roche Diagnostics, Mannheim) using the following protocol: Pre-incubation for 1 min at 95° C., amplification: 40 cycles×(10 sec at 95° C., 50 sec at 60° C., 1 sec at 70° C.), cooling for 10 sec at 40° C. Viral load was quantitated against known standards using HBV plasmid DNA of pCH-9/3091 (Nassal et al., 1990, Cell 63: 1357-1363) and the LightCycler 480 SW 1.5 software (Roche Diagnostics, Mannheim) and EC50 values were calculated using non-linear regression with GraphPad Prism 6 (GraphPad Software Inc., La Jolla, USA).

[1] = target: T1, C-terminal truncated core protein (HBV core dimer, BODIPY-FL labelled) (UniProt P03146); assay: Biochemical capsid assembly assay (fluorescence quenching)
T1 construct: fused on or other part: One added cysteine at position 150, labelled with BODIPY-FL maleimide; The C-terminal arginine-rich domain is absent
Method: Biochemical Capsid Assembly Assay
The screening for assembly effector activity was done based on a fluorescence quenching assay published by Zlotnick et al. (2007). The C-terminal truncated core protein containing 149 amino acids of the N-terminal assembly domain fused to a unique cysteine residue at position 150 and was expressed in E. coli using the pET expression system (Merck Chemicals, Darmstadt). Purification of core dimer protein was performed using a sequence of size exclusion chromatography steps. In brief, the cell pellet from 1 L BL21 (DE3) Rosetta2 culture expressing the coding sequence of core protein cloned NdeI/XhoI into expression plasmid pET21b was treated for 1 h on ice with a native lysis buffer (Qproteome Bacterial Protein Prep Kit; Qiagen, Hilden). After a centrifugation step the supernatant was precipitated during 2 h stirring on ice with 0.23 g/ml of solid ammonium sulfate. Following further centrifugation the resulting pellet was resolved in buffer A (100 mM Tris, pH 7.5; 100 mM NaCl; 2 mM DTT) and was subsequently loaded onto a buffer A equilibrated CaptoCore 700 column (GE HealthCare, Frankfurt). The column flow through containing the assembled HBV capsid was dialyzed against buffer N (50 mM NaHCO3 pH 9.6; 5 mM DTT) before urea was added to a final concentration of 3M to dissociate the capsid into core dimers for 1.5 h on ice. The protein solution was then loaded onto a 1 L Sephacryl 5300 column. After elution with buffer N core dimer containing fractions were identified by SDS-PAGE and subsequently pooled and dialyzed against 50 mM HEPES pH 7.5; 5 mM DTT. To improve the assembly capacity of the purified core dimers a second round of assembly and disassembly starting with the addition of 5 M NaCl and including the size exclusion chromatography steps described above was performed. From the last chromatography step core dimer containing fractions were pooled and stored in aliquots at concentrations between 1.5 to 2.0 mg/ml at −80° C.
Immediately before labelling the core protein was reduced by adding freshly prepared DTT in a final concentration of 20 mM. After 40 min incubation on ice storage buffer and DTT was removed using a Sephadex G-25 column (GE HealthCare, Frankfurt) and 50 mM HEPES, pH 7.5. For labelling 1.6 mg/ml core protein was incubated at 4° C. and darkness overnight with BODIPY-FL maleimide (Invitrogen, Karlsruhe) in a final concentration of 1 mM. After labelling the free dye was removed by an additional desalting step using a Sephadex G-25 column. Labelled core dimers were stored in aliquots at 4° C. In the dimeric state the fluorescence signal of the labelled core protein is high and is quenched during the assembly of the core dimers to high molecular capsid structures. The screening assay was performed in black 384 well microtiter plates in a total assay volume of 10 μl using 50 mM HEPES pH 7.5 and 1.0 to 2.0 μM labelled core protein. Each screening compound was added in 8 different concentrations using a 0.5 log-unit serial dilution starting at a final concentration of 100 μM, 31.6 μM or 10 μM, In any case the DMSO concentration over the entire microtiter plate was 0.5%. The assembly reaction was started by the injection of NaCl to a final concentration of […] which induces the assembly process to approximately 25% of the maximal quenched signal. […] after starting the reaction the fluorescence signal was measured using a Clariostar plate reader (BMG Labtech, Ortenberg) with an excitation of 477 nm and an emission of 525 nm. As 100% and 0% assembly control HEPES buffer containing 2.5 M and 0 M NaCl was used. Experiments were performed thrice in triplicates. EC50 values were calculated by non-linear regression analysis using the Graph Pad Prism 6 software (GraphPad Software, La Jolla, USA).

[2] = Cell viability assay (AlamarBlue); settings: human, HepAD38 cells

T1 sequence (P03146 whole entry, the tested form may be a part): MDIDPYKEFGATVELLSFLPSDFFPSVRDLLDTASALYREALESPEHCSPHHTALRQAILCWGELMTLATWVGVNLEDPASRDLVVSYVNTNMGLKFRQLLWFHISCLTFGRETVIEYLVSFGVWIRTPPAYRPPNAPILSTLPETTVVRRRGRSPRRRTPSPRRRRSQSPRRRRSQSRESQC

| SMILES | EC50 (HBV) [µM] | IC50 [1] [µM] | CC50 at 6 days [2] [µM] |
| --- | --- | --- | --- |
| O=C(NCCO)C(=O)N1CCN(C(=O)c2cc3ccccc3[nH]2)CC1 [Example 3, 2-(4-(1H-indole-2-carbonyl)piperazin-1-yl)-N-(2-hydroxyethyl)-2-oxoacetamide] | 1 to 10 | < 100 | > 100 |
| CC1(CNC(=O)C(=O)N2CCN(C(=O)c3cc4ccccc4[nH]3)CC2)CCOC1 (centres unmarked) [Example 12, 2-[4-(1H-indole-2-carbonyl)piperazin-1-yl]-N-[(3-methyloxolan-3-yl)methyl]-2-oxoacetamide] | < 1 | < 5 | > 100 |
| CC(O)CCCNC(=O)C(=O)N1CCN(C(=O)c2cc3c(F)cc(F)cc3[nH]2)CC1 (centres unmarked) [Example 60, 2-(4-(4,6-difluoro-1H-indole-2-carbonyl)piperazin-1-yl)-N-(4-hydroxypentyl)-2-oxoacetamide] | < 1 | < 5 | > 100 |
| CC(O)CNC(=O)C(=O)N1CCN(C(=O)c2cc3ccccc3[nH]2)CC1 (centres unmarked) [Example 28, 2-(4-(1H-indole-2-carbonyl)piperazin-1-yl)-N-(2-hydroxypropyl)-2-oxoacetamide] | < 1 | < 5 | > 100 |
| CC(C)(CCO)CNC(=O)C(=O)N1CCN(C(=O)c2cc3c(F)cc(F)cc3[nH]2)CC1 [Example 61, 2-(4-(4,6-difluoro-1H-indole-2-carbonyl)piperazin-1-yl)-N-(4-hydroxy-2,2-dimethylbutyl)-2-oxoacetamide] | < 1 | < 5 | > 100 |
| O=C(NC1CCCC1)C(=O)N1CCN(C(=O)c2cc3cccc(Br)c3[nH]2)CC1 [Example 7, 2-[4-(7-bromo-1H-indole-2-carbonyl)piperazin-1-yl]-N-cyclopentyl-2-oxoacetamide] | < 1 | 5 to 10 | > 100 |
| O=C(NCCCO)C(=O)N1CCN(C(=O)c2cc3c(F)cc(F)cc3[nH]2)CC1 [Example 54, 2-(4-(4,6-difluoro-1H-indole-2-carbonyl)piperazin-1-yl)-N-(3-hydroxypropyl)-2-oxoacetamide] | < 1 | < 5 | > 100 |
| COC1(CNC(=O)C(=O)N2CCN(C(=O)c3cc4c(F)cc(F)cc4[nH]3)CC2)CC1 [Example 65, 2-(4-(4,6-difluoro-1H-indole-2-carbonyl)piperazin-1-yl)-N-((1-methoxycyclopropyl)methyl)-2-oxoacetamide] | < 1 | < 5 | > 100 |
| C[C@@H](O)CNC(=O)C(=O)N1CCN(C(=O)c2cc3ccccc3[nH]2)CC1 [Example 2, (R)-2-(4-(1H-indole-2-carbonyl)piperazin-1-yl)-N-(2-hydroxypropyl)-2-oxoacetamide] | 1 to 10 | 5 to 10 | > 100 |
| O=C(NCc1ccoc1)C(=O)N1CCN(C(=O)c2cc3ccccc3[nH]2)CC1 [Example 10, 2-(4-(1H-indole-2-carbonyl)piperazin-1-yl)-N-(furan-3-ylmethyl)-2-oxoacetamide] | < 1 | < 5 | > 100 |
| O=C(NCCCCO)C(=O)N1CCN(C(=O)c2cc3c(F)cc(F)cc3[nH]2)CC1 [Example 62, 2-(4-(4,6-difluoro-1H-indole-2-carbonyl)piperazin-1-yl)-N-(4-hydroxybutyl)-2-oxoacetamide] | < 1 | < 5 | > 100 |
| COC(C)CNC(=O)C(=O)N1CCN(C(=O)c2cc3c(F)cc(F)cc3[nH]2)CC1 (centres unmarked) [Example 63, 2-(4-(4,6-difluoro-1H-indole-2-carbonyl)piperazin-1-yl)-N-(2-methoxypropyl)-2-oxoacetamide] | < 1 | < 5 | > 100 |
| C[C@@H](O)CNC(=O)C(=O)N1CCN(C(=O)c2cc3c(F)cc(F)cc3[nH]2)CC1 [Example 64, (R)-2-(4-(4,6-difluoro-1H-indole-2-carbonyl)piperazin-1-yl)-N-(2-hydroxypropyl)-2-oxoacetamide] | < 1 | < 5 | > 100 |
| CCCCNC(=O)C(=O)N1CCN(C(=O)c2cc3ccccc3[nH]2)CC1 [Example 6, N-butyl-2-[4-(1H-indole-2-carbonyl)piperazin-1-yl]-2-oxoacetamide] | < 1 | < 5 | > 100 |
| CCCCNC(=O)C(=O)N1CCN(C(=O)c2cc3cccc(C)c3[nH]2)CC1 [Example 24, N-butyl-2-(4-(7-methyl-1H-indole-2-carbonyl)piperazin-1-yl)-2-oxoacetamide] | < 1 |  | > 100 |
| O=C(Nc1cccc(Br)c1)C(=O)N1CCN(C(=O)c2cc3ccccc3[nH]2)CC1 [Example 1, N-(3-bromophenyl)-2-[4-(1H-indole-2-carbonyl)piperazin-1-yl]-2-oxoacetamide] | 1 to 10 |  |  |
| NC(=O)C1(CNC(=O)C(=O)N2CCN(C(=O)c3cc4ccccc4[nH]3)CC2)CCC1 [Example 20, 1-((2-(4-(1H-indole-2-carbonyl)piperazin-1-yl)-2-oxoacetamido)methyl)cyclobutane-1-carboxamide] |  | < 100 |  |
| CC(C)(C)NC(=O)C(=O)N1CCN(C(=O)c2cc3cc(F)c(F)cc3[nH]2)CC1 [Example 42, N-tert-butyl-2-[4-(5,6-difluoro-1H-indole-2-carbonyl)piperazin-1-yl]-2-oxoacetamide] |  | 5 to 10 |  |
